From paper PMC9501900 (Molecules, 2022)

Columns and labels:
[1] = cited from earlier work
[2] = Pharmacokinetics of gefitinib in rats, alone and coadministered with CJ (serum, LC-MS/MS); type: in vivo; conditions: for Change (increase) of AUC0-t of gefitinib / Change (increase) of Cmax of gefitinib: coadministration with CJ (5.0 g/kg of cranberry) vs gefitinib alone, p < 0.05; for Change (increase) of AUC0-t of gefitinib / Change (increase) of Cmax of gefitinib / AUC(0-t) / Cmax / MRT / Tmax: rats; for AUC(0-t) / Cmax / MRT / Tmax: male, Sprague-Dawley, rat, serum, po, 50 mg/kg, mean ± S.E., n = 5
Description: Twelve male Sprague-Dawley rats (300–400 g) were supplied by BioLASCO Taiwan Co., Ltd. […] […] Rats were fasted for 12 h before dosing, and food was offered 3 h after drug administration. […] The serum was collected after centrifugation at 10,000× g for 15 min and stored at −20 °C until analysis.
Briefly, 50 μL of serum was partitioned with an equal volume of ethyl acetate containing erlotinib (0.5 μg/mL) as internal standard. The ethyl acetate layer was evaporated under N2 gas to dryness and reconstituted with 50 μL of acetonitrile containing 0.1% formic acid, and then 5 μL was subject to LC-MS/MS analysis.
The mobile phase consisted of 0.1% formic acid (A) and acetonitrile containing 0.1% formic acid (B), and a gradient elution was programmed as follows: A/B: 80/20 (0–1.0 min), 0/100 (1.0–3.5 min) and 80/20 (3.5–6.5 min). The flow rate was 0.2 mL/ min. Nitrogen was used as sheath gas at 50 arbitrary units and auxiliary gas at 10 arbitrary units. […] ESI-MS spectra were recorded in the positive ion mode.
Pharmacokinetic parameters were calculated by the noncompartment model of Phoenix WinNonlin® (version 8.1 Pharsight Corporation, St. Louis, MO, USA). The peak serum concentration (Cmax) was calculated based on experimental measurement. The areas under the serum concentration–time curves (AUC0-t) from time zero to last were calculated by the trapezoidal rule. Each pharmacokinetic parameter was compared among various treatment groups using one-way analysis of variance (ANOVA) with Scheffe’s test. Other studies were statistically compared using unpaired Student’s t-test. Statistical significance level was set at p < 0.05.

[3] = gefitinib 50 mg/kg oral + water
[4] = gefitinib 50 mg/kg oral coadministered with CJ (5.0 g/kg of cranberry)

| Structure (SMILES) | Bioavailability [1] | Elimination half-life [1] [h] | Change (increase) of AUC0-t of gefitinib [2] | Change (increase) of Cmax of gefitinib [2] | Change (increase) of AUC0-t of gefitinib ([2]; listed as gefitinib) [%] | Change (increase) of Cmax of gefitinib ([2]; listed as gefitinib) [%] | AUC(0-t) [2, 3] [ng·h/mL] | Cmax [2, 3] [ng/mL] | MRT [2, 3] [h] | Tmax [2, 3] [h] | AUC(0-t) [2, 4] [ng·h/mL] | Cmax [2, 4] [ng/mL] | MRT [2, 4] [h] | Tmax [2, 4] [h] | Concentrations of O-desmethyl gefitinib in serum ([2]; rat serum samples after oral gefitinib 50 mg/kg, calibration range 0.50–0.03 μg/mL) |
| --- | --- | --- | --- | --- | --- | --- | --- | --- | --- | --- | --- | --- | --- | --- | --- |
| COc1cc2ncnc(Nc3ccc(F)c(Cl)c3)c2cc1OCCCN1CCOCC1 [Gefitinib] | 57–59% | > 24 | (+55%) | (+28%) | 55 | 28 | 19500 | 1800 ± 300 | 8.52 | 4.4 | 30300 | 2300 ± 200 | 9.05 | 3.6 |  |
| Oc1cc2ncnc(Nc3ccc(F)c(Cl)c3)c2cc1OCCCN1CCOCC1 [O-desmethyl gefitinib] |  |  |  |  |  |  |  |  |  |  |  |  |  |  | below the LLOQ |
